# Reference: ChEMBL document CHEMBL4011609, “Discovery of novel BRD4 inhibitors by high-throughput screening, crystallography, and cell-based assays” (Bioorg Med Chem Lett, 2017)
# Activity calls are given as the source filed them. The rule behind the calls is not given here.
# What was measured:
# [1] = tested on: MV4-11; experiment: Induction of apoptosis in human MV4-11 cells assessed as apoptotic cells at 27 uM after 72 hrs by Annexin V-FITC/propidium iodide staining based flow cytometry (reference value: 3.62 %); assay type: functional
# [2] = tested on: MV4-11; experiment: Cell cycle arrest in human MV4-11 cells assessed as accumulation at S phase at 27 uM after 24 hrs by propidium iodide/RNase staining based flow cytometry (reference value: 31.98 %); assay type: functional
# [3] = molecular target: T1, Bromodomain-containing protein 9 (Homo sapiens) (UniProt Q9H8M2); experiment: Inhibition of BRD9 (unknown origin) at 100 uM using acetylated lysine as substrate relative to control
# T1 sequence (whole entry): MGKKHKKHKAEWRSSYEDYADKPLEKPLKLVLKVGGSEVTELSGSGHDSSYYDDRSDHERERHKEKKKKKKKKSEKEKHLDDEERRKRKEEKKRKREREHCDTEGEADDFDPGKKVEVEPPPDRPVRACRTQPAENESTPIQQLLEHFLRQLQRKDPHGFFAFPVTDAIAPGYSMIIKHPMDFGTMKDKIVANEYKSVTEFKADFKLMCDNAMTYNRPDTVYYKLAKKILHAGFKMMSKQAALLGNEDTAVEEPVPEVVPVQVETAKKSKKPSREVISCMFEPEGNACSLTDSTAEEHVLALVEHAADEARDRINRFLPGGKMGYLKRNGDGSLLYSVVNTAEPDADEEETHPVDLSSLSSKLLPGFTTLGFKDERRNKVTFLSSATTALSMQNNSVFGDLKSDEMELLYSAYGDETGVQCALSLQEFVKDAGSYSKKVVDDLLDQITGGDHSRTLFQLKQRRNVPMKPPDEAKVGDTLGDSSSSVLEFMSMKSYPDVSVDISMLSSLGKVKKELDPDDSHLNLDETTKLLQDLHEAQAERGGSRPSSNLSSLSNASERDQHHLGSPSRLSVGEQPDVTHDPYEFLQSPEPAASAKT
# [4] = molecular target: T2, Bromodomain-containing protein 4 (Homo sapiens, UniProt O60885); experiment: Binding affinity to human BRD4 BD1 (49 to 170 residues) expressed in Escherichia coli BL21(DE3) assessed as change in melting temperature by SYPRO Orange probe-based Real-Time PCR method
# [5] = molecular target: T2, Bromodomain-containing protein 4; experiment: Inhibition of BRD4 BD1 in human MV4-11 cells assessed as reduction in CDK6 mRNA level at 10 to 30 uM after 6 hrs by Sybr green dye based qRT-PCR analysis; assay type: cell-based
# [6] = molecular target: SWI/SNF-related matrix-associated actin-dependent regulator of chromatin subfamily A member 2 (Homo sapiens) (UniProt P51531); experiment: Inhibition of SMARCA2 (unknown origin) at 50 uM using acetylated lysine as substrate relative to control
# Sequence of SWI/SNF-related matrix-associated actin-dependent regulator of chromatin subfamily A member 2 (Homo sapiens) (P51531 whole entry): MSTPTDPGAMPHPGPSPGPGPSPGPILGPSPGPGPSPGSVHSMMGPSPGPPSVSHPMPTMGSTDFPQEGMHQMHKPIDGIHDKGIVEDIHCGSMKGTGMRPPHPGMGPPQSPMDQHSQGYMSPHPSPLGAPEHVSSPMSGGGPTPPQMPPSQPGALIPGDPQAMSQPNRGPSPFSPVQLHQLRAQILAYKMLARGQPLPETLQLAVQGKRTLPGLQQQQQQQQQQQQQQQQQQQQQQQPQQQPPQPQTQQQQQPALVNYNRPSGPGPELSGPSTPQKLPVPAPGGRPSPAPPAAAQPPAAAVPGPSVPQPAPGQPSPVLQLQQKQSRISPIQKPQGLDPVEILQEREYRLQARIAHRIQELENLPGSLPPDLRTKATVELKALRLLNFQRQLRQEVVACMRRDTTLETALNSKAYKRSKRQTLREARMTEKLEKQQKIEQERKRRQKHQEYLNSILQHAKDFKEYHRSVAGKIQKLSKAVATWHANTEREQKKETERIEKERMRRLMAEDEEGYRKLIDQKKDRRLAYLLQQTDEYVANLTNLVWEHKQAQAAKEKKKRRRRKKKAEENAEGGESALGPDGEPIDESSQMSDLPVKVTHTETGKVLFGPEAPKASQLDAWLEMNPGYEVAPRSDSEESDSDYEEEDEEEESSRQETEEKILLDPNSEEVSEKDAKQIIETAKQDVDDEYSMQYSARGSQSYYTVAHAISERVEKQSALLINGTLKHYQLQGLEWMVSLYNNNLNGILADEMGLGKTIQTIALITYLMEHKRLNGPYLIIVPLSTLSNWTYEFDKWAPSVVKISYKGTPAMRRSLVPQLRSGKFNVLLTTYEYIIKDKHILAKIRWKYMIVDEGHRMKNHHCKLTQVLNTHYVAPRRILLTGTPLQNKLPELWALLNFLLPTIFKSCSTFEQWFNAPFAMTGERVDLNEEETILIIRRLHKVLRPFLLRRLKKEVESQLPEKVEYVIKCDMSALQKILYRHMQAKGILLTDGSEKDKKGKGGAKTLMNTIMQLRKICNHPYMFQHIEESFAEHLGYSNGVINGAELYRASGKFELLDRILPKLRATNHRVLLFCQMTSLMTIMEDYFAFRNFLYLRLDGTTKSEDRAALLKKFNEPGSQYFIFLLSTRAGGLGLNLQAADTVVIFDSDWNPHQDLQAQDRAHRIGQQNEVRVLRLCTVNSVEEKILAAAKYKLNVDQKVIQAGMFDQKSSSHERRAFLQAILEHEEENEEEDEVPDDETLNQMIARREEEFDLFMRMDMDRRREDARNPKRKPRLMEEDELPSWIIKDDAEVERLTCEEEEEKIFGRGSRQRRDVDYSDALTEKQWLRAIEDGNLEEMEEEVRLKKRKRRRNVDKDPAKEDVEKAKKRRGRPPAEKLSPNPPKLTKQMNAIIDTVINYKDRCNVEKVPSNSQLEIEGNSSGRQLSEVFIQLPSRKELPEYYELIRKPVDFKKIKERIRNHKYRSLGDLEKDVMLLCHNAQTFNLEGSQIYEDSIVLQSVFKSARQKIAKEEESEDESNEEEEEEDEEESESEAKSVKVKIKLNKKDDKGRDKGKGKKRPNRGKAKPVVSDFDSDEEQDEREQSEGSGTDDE
# [7] = molecular target: T3, Bromodomain-containing protein 7 (Homo sapiens) (UniProt Q9NPI1); experiment: Inhibition of BRD7 (unknown origin) at 50 uM using acetylated lysine as substrate relative to control
# T3 sequence (whole entry): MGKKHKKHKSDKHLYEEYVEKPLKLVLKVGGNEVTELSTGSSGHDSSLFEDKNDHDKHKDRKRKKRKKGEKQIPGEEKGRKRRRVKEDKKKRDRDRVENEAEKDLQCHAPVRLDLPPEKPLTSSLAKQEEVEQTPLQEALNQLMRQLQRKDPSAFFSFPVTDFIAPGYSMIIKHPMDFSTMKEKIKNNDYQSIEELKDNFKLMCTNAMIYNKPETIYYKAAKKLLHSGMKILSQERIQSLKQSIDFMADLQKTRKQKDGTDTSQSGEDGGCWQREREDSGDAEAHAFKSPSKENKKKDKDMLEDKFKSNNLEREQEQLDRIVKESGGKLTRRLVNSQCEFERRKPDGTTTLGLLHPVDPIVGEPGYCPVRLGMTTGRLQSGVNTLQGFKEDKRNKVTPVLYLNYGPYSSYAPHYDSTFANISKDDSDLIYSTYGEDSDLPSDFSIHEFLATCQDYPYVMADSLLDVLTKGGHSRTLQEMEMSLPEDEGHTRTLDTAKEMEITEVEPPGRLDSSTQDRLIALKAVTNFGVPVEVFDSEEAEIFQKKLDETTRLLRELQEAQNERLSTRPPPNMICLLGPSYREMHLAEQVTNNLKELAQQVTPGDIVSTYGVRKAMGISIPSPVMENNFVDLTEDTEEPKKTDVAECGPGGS
# [8] = tested on: MV4-11; experiment: Cell cycle arrest in human MV4-11 cells assessed as accumulation at G0/G1 phase at 27 uM after 24 hrs by propidium iodide/RNase staining based flow cytometry (reference value: 57.54%); assay type: functional
# [9] = molecular target: T2, Bromodomain-containing protein 4; experiment: Inhibition of BRD4 BD1 in human MV4-11 cells assessed as reduction in c-Myc expression after 6 hrs by Western blot method; assay type: cell-based
# [10] = molecular target: T2, Bromodomain-containing protein 4; experiment: Binding affinity to human BRD4 BD1 (49 to 170 residues) expressed in Escherichia coli BL21(DE3) assessed as change in melting temperature at 100 uM by SYPRO Orange probe-based Real-Time PCR method
# [11] = tested on: MV4-11; experiment: Induction of apoptosis in human MV4-11 cells assessed as necrotic cells at 27 uM after 72 hrs by Annexin V-FITC/propidium iodide staining based flow cytometry (reference value: 1.68 %); assay type: functional
# [12] = molecular target: T2, Bromodomain-containing protein 4; experiment: Binding affinity to human BRD4 BD1 (49 to 170 residues) expressed in Escherichia coli BL21(DE3) assessed as change in melting temperature at 50 uM by SYPRO Orange probe-based Real-Time PCR method
# [13] = molecular target: T2, Bromodomain-containing protein 4; experiment: Inhibition of BRD4 BD1 in human MV4-11 cells assessed as reduction in c-Myc mRNA level at 10 to 30 uM after 6 hrs by Sybr green dye based qRT-PCR analysis; assay type: cell-based
# [14] = molecular target: T3, Bromodomain-containing protein 7 (Homo sapiens); experiment: Inhibition of BRD7 (unknown origin) at 100 uM using acetylated lysine as substrate relative to control
# [15] = tested on: MV4-11; experiment: Antiproliferative activity against human MV4-11 cells after 3 days by Alamar blue assay; conditions: MV4-11, 72 h
# [16] = tested on: MV4-11; experiment: Cell cycle arrest in human MV4-11 cells assessed as accumulation at G2 phase at 27 uM after 24 hrs by propidium iodide/RNase staining based flow cytometry (reference value: 10.48 %); assay type: functional
# [17] = molecular target: T2, Bromodomain-containing protein 4; experiment: Inhibition of BRD4 BD1 in human MV4-11 cells assessed as reduction in Bcl-2 mRNA level at 10 to 30 uM after 6 hrs by Sybr green dye based qRT-PCR analysis; assay type: cell-based
# [18] = molecular target: SWI/SNF-related matrix-associated actin-dependent regulator of chromatin subfamily A member 2 (Homo sapiens) (UniProt P51531); experiment: Inhibition of SMARCA2 (unknown origin) at 100 uM using acetylated lysine as substrate relative to control
# [19] = tested on: MV4-11; experiment: Antiproliferative activity against human MV4-11 cells after 7 days by Alamar blue assay; conditions: MV4-11, 168 h
# [20] = molecular target: T1, Bromodomain-containing protein 9 (Homo sapiens); experiment: Inhibition of BRD9 (unknown origin) at 50 uM using acetylated lysine as substrate relative to control
# [21] = molecular target: T2, Bromodomain-containing protein 4; experiment: Binding affinity to human BRD4 BD1 (49 to 170 residues) expressed in Escherichia coli BL21(DE3) assessed as change in melting temperature at 200 uM by SYPRO Orange probe-based Real-Time PCR method
# [22] = tested on: MV4-11; experiment: Induction of apoptosis in human MV4-11 cells assessed as live cells at 27 uM after 72 hrs by Annexin V-FITC/propidium iodide staining based flow cytometry (reference value: 92 %); assay type: functional
# [23] = molecular target: T2, Bromodomain-containing protein 4; experiment: Inhibition of human BRD4-BD1 (49 to 170 residues) expressed in Escherichia coli BL21(DE3) using N-C:SGRG-K(Ac)-GG-K(Ac)-GLG-K(Ac)-GGA-K(Ac)-RHRKVGG-K(biotin) as substrate preincubated for 15 mins followed by substrate addition measured after 5 mins by AlphaScreen assay
# [24] = molecular target: Nucleosome-remodeling factor subunit BPTF (Homo sapiens) (UniProt Q12830); experiment: Inhibition of FALZ (unknown origin) at 100 uM using acetylated lysine as substrate relative to control
# [25] = molecular target: Nucleosome-remodeling factor subunit BPTF (Homo sapiens) (UniProt Q12830); experiment: Inhibition of FALZ (unknown origin) at 50 uM using acetylated lysine as substrate relative to control
compound,measurement,setting,value
CN(CCCNc1cc(=O)oc2ccccc12)C(=O)c1cccs1,Activity,[1],10.7%
same,Activity,[2],18.93%
same,inhibition,[3],12%
same,deltaTm,[4],Dose-dependent effect
same,inhibition,[5],Active
same,inhibition,[6],inactive
same,inhibition,[7],9%
same,Activity,[8],75.23%
same,inhibition,[9],Dose-dependent effect
same,ΔTm,[10],3.06 °C
same,Activity,[11],6.9%
same,ΔTm,[12],0.85 °C
same,inhibition,[13],Active
same,inhibition,[14],16%
same,IC50,[15],18.8 µM
same,Activity,[16],5.84%
same,inhibition,[17],Active
same,inhibition,[18],inactive
same,IC50,[19],10 µM
same,inhibition,[20],inactive
same,ΔTm,[21],7.07 °C
same,Activity,[22],76.2%
same,IC50,[23],0.81 µM
same,inhibition,[24],inactive
same,inhibition,[25],inactive
